Results from PMC7589136, “The Human Digestive Tract Is Capable of Degrading Gluten from Birth” (International Journal of Molecular Sciences, 2020).
Where two headings read alike, the source gives them in different places. Ends that are not written are not given here.

Assays:
[1] = system: elastase 3B, elastase 2A, and carboxypeptidase A1; settings: cited from earlier work
[2] = Peptidase activity of desalted fecal protein extracts against 33-mer, 19-mer and 13-mer gliadin peptides (HPLC); assay type: in vitro ADME, human; settings: for Degradation capacity of new-born fecal samples against peptide / Degradation of peptide by feces samples / Degradation of peptide by fecal protein extract / Degradation of peptide by meconium protein extract: 60 μM peptide, 37 °C; for Degradation capacity of new-born fecal samples against peptide: in some cases intermediate peptides observed; for Degradation of peptide by feces samples: up to 12 month-olds; for Degradation of peptide by fecal protein extract / Degradation of peptide by meconium protein extract: 0.8 mg/mL extract; for Degradation of peptide by fecal protein extract: HPLC UV 215 nm; for Degradation of peptide by meconium protein extract: reverse-phase HPLC, UV 215 nm
Protocol: Step 1: Sample preparation: Fecal samples were homogenized by mechanical stirring (90 min) in 10 mM Tris-HCl, pH 7.5 (1:5 w/v) and centrifuged (3100× g, 30 min). The supernatant was re-centrifuged at 30,000× g for 20 min.
Step 2: Ammonium sulphate fractionation: Each supernatant obtained from step 1 was precipitated with ammonium sulphate. The 80% ammonium sulphate precipitate (containing glutenase activity) was collected by centrifugation at 30,000× g, 20 min. The pellet was dissolved in 10 mM Tris-HCl (pH 7.5) and ammonium sulphate was eliminated by passing through a Sephadex G-25 (PD-10) column (GE Healthcare Live Sources, San Diego, CA USA) equilibrated with Tris-ClH (pH 5) in accordance with manufacturer’s indications.
Peptides used in this paper were: 33-mer ([…]), 19-mer (LGQQQPFPPQQPYPQPQPF), and 13-mer (LGQQQPFPPQQPY) synthetized by Bionova Científica, S.L. (Madrid, Spain) with purification grade around 96%.
We assayed 33-mer, 19-mer, and 13-mer hydrolysis as described previously, with modifications. Briefly, reaction mixtures containing 0.8 mg/mL of desalted protein extract (see step 2.2), 33-, 19-, or 13-mer peptide (60 μM) were incubated at 37 °C for 60 min and then stopped by boiling at 100 °C. 10-µL of each filtered aliquot was subjected to reverse-phase HPLC. The elution phases consisted of (A) MilliQ H2O containing 0.1% trifluoroacetic acid (TFA) (v/v) and (B) acetonitrile and 0.1% TFA (v/v). The eluate was monitored by measuring UV absorbance at 215 nm. Negative controls included runs with proteins denatured by boiling for 15 min, or 33-, 19-, and 13-mer peptides assayed without protein extract.

[3] = elastase 3B, elastase 2A, and carboxypeptidase A1 from human feces

Sequence | Hydrolysis of peptide by gastrointestinal proteases [1, 3] | Degradation capacity of new-born fecal samples against peptide ([2]; 60 min, HPLC) | Degradation of peptide by feces samples ([2]; 60 min, HPLC) | Degradation of peptide by fecal protein extract ([2]; volunteers >300 months old (the only group that did not degrade it completely), 60 min) | Hydrolysis of peptide by gastrointestinal proteases [1] | Hydrolytic activity of meconium samples against peptide ([2]; all 21 meconium samples, HPLC) | Degradation of peptide by meconium protein extract ([2]; desalted meconium protein extract of newborn volunteer 15, 60 min, intermediate peptides generated) | Degradation of peptide by meconium protein extract ([2]; desalted meconium protein extracts of newborn volunteers 3 and 9, 60 min) | Degradation of peptide by fecal protein extract ([2]; volunteers 0–2 months old, 60 min) | Degradation of peptide by fecal protein extract ([2]; volunteers 2–6 months old, 60 min) | Degradation of peptide by fecal protein extract ([2]; volunteers over 48 months old, 1 h)
LGQQQPFPPQQPY [13-mer] | fully | total degradation | able to degrade | not able to complete degrade |  |  |  |  |  |  | 
LGQQQPFPPQQPYPQPQPF [19-mer] |  |  |  |  | fully |  |  |  |  |  | 
LQLQPFPQPQLPYPQPQLPYPQPQLPYPQPQPF [33-mer] | partially | total degradation | able to degrade |  |  | showed hydrolytic activity | only partially degraded | completely degrade | completely degrade | completely degrade | unable to completely degrade
